Experimental data as given in US6413734B1, “Method for judging effectiveness of drug having protease inhibitory activity” (Fuji Photo Film Co., LTD, priority 1999, dated 2002).

Key:
[1] = system: protease activity of breast cancer specimen; experiment: Gelatin digestion by breast cancer specimen collected by paracentesis and suction, pretreated with TIMP-1 and TIMP-2, on gelatin thin membrane; type: cell-based, human; details: one breast cancer specimen suspended in buffer with 10 μg/ml of TIMP-1 and TIMP-2 together; 37° C., 16 hours
Experimental: Abreast cancer specimen collected by paracentesis and suction was suspended in a phosphate buffer containing 0.5% of polyvinylpyrrolidone, and adhered to a gelatin thin membrane disclosed in WO97/32035 by using a cytospin apparatus of Shandon Co., Ltd. at a speed of 400 rpm. The membrane thickness of gelatin was 7 μm. The gelatin membrane was incubated at 37° C. for 16 hours under 100% of relative humidity, and then dried in air. A solution in which Ponceau 3R was dissolved at a concentration of 0.8% in 6% trichloroacetic acid aqueous solution was used as a staining solution. The membrane was immersed in the solution at room temperature for 20 seconds for staining. […]
A breast cancer specimen collected by paracentesis and suction was suspended in a phosphate buffer containing 0.5% of polyvinylpyrrolidone and 10 μg/ml of TIMP-1 (tissue inhibitor of metalloproteinase-1) and TIMP-2, and adhered to a gelatin thin membrane disclosed in WO97/32035 by using a cytospin apparatus of Shandon Co., Ltd. at a speed of 400 rpm. […] When traces of digestion were detected in the same manner except for the treatments with TIMP-1 and TIMP-2 as a control, presence of distinct traces of digestion was observed.

[2] = system: Protease activity of breast cancer specimens; experiment: Protease activity measurement of frozen breast cancer slices on gelatin thin membranes containing a matrix metalloproteinase inhibitor; type: biochemical, human; details: 20 breast cancer specimens; inhibitor contained in gelatin thin membrane; 37° C., 16 hours
Experimental: A breast cancer specimen, which was extracted by surgical operation and frozen, was sliced at −25° C. into slices having a thickness of 4 μm by using a cryostat, and adhered to a gelatin thin membrane disclosed in WO97/32035. The thickness of gelatin was 7 μm. This gelatin membrane was incubated at 37° C. for 16 hours under 100% of relative humidity, and then dried in air. A solution obtained by mixing a solution in which Ponceau 3R was dissolved at a concentration of 0.8% in 6% trichloroacetic acid aqueous solution and ethanol at a volume ratio of 3:7 was used as a staining solution. The membrane was immersed in the solution at room temperature for 4 minutes for staining. After the membrane was washed with water for 10 minutes, the membrane was then immersed in a Mayer's hematoxylin solution for 2 minutes for nuclear staining, and further washed with water for 10 minutes and dried in air. After the drying, a Cover Aid Film (Sakura Seiki Co., Ltd.) was adhered to the membrane using xylene to enclose the breast cancer slice. The film was held on a plastic mount and observed under an optical microscope. […]
Protease activity of breast cancer specimens, which were extracted by surgical operation and then frozen, was measured in the same manner as Example 1 using gelatin thin membranes containing a matrix metalloproteinase inhibitor (1,10-phenanthroline) disclosed in WO97/32035. […]

| Protease activity (traces of digestion on gelatin thin membrane) [2] | Molecule | Gelatin digestion on sites where the cancer cells were present [1] |
| --- | --- | --- |
| – | TIMP-1: tissue inhibitor of metalloproteinase-1 | not observed |
| suppressed in all specimens | c1cnc2c(c1)ccc1cccnc12 [1,10-phenanthroline] | – |
